Source: patent US9751853B2, “Solid forms of 3-(5-amino-2-methyl-4-oxo-4H-quinazolin-3-yl)-piperidine-2,6-dione, and their pharmaceutical compositions and uses” (Celgene Corporation, priority 2011, dated 2017)

Assays:
[1] = Dynamic Vapor Sorption (moisture sorption); format: physicochemical; settings: 95% RH, room temperature
Procedure: Dynamic Vapor Sorption (DVS): Hygroscopicity was determined on a Surface Measurement Systems DVS. Typically, a sample of about 2-10 mg was loaded into the DVS instrument sample pan. The sample was analyzed on a DVS automated sorption analyzer at room temperature. The relative humidity was increased from 0 to 95% RH at 10% RH step, then at 95% RH. The relative humidity was then decreased in a similar manner to accomplish a full adsorption/desorption cycle.

[2] = Grinding studies, solid form by XRPD; format: physicochemical
Procedure: Grinding Studies: Grinding experiments were performed using a Wig-L-Bug shaker. About 50 mg of Compound A hydrochloride was added to a polystyrene tube (1″×½″) with a Plexi bead (⅜″). The vial was capped and placed on the shaker for about 50 s. For wet grinding, drops of water were added to the vial and a wet paste was formed prior to placing on the shaker.
X-ray Powder Diffraction (XRPD): XRPD analysis was conducted on a Thermo ARL X'TRA™ X-ray powder diffractometer using Cu Kα radiation at 1.54 Å. The instrument was equipped with a fine focus X-ray tube. The voltage and amperage of X-ray generator were set at 45 kV and 40 mA, respectively. The divergence slices were set at 4 mm and 2 mm and the measuring slices were set at 0.5 mm and 0.2 mm. Diffracted radiation was detected by a peltier-cooled Si(Li) solid-state detector. A theta-two theta continuous scan at 2.40°/min (0.5 sec/0.02° step) from 1.5°2θ to 40°2θ was used. A sintered alumina standard was used to check the peak position. In general, positions of XRPD peaks are expected to individually vary on a measurement-by-measurement basis by about +0.2°2θ. In general, as understood in the art, two XRPD patterns match one another if the characteristic peaks of the first pattern are located at approximately the same positions as the characteristic peaks of the second pattern. As understood in the art, determining whether two XRPD patterns match or whether individual peaks in two XRPD patterns match may require consideration of individual variables and parameters such as, but not limited to, preferred orientation, phase impurities, degree of crystallinity, particle size, variation in diffractometer instrument setup, variation in XRPD data collection parameters, and/or variation in XRPD data processing, among others. The determination of whether two patterns match may be performed by eye and/or by computer analysis.

**Q.** For `Cc1nc2cccc(N)c2c(=O)n1C1CCC(=O)NC1=O` (stereo not shown) [Form B, 3-(5-amino-2-methyl-4-oxo-4H-quinazolin-3-yl)-piperidine-2,6-dione], which “Moisture Sorption at 95% RH” value ([1]; listed as B) is on record?
**A.** Its value is 0.11 wt %.

**Q.** Which “Moisture Sorption at 95% RH” value ([1]; listed as D) does the source give for `Cc1nc2cccc(N)c2c(=O)n1C1CCC(=O)NC1=O` (stereo not shown) [Form D, 3-(5-amino-2-methyl-4-oxo-4H-quinazolin-3-yl)-piperidine-2,6-dione] here?
**A.** The value was 4.11 wt %.

**Q.** With `Cc1nc2cccc(N)c2c(=O)n1C1CCC(=O)NC1=O` (stereo not shown) [Form C, 3-(5-amino-2-methyl-4-oxo-4H-quinazolin-3-yl)-piperidine-2,6-dione] as the compound, how does the “Moisture Sorption at 95% RH” value ([1]; listed as C) read?
**A.** The value was 0.17 wt %.

**Q.** For `Cc1nc2cccc(N)c2c(=O)n1C1CCC(=O)NC1=O` (stereo not shown) [Form A, 3-(5-amino-2-methyl-4-oxo-4H-quinazolin-3-yl)-piperidine-2,6-dione], which “XRPD Result after grinding” value ([2]; Dry grinding) is on record?
**A.** Its value is “Form A1”.

**Q.** And the “XRPD Result after grinding” value ([2]; Wet grinding (paste))?
**A.** Its value is “Form A1”.

**Q.** With `Cc1nc2cccc(N)c2c(=O)n1C1CCC(=O)NC1=O` (stereo not shown) [Form E, 3-(5-amino-2-methyl-4-oxo-4H-quinazolin-3-yl)-piperidine-2,6-dione] as the compound, how does the “Moisture Sorption at 95% RH” value ([1]; listed as E) read?
**A.** Its value is 0.26 wt %.

**Q.** For `Cc1nc2cccc(N)c2c(=O)n1C1CCC(=O)NC1=O` (stereo not shown) [Compound A, 3-(5-amino-2-methyl-4-oxo-4H-quinazolin-3-yl)-piperidine-2,6-dione], which “Moisture Sorption at 95% RH” value [1] is on record?
**A.** The value was 3.19 wt %.
